Test results reported in US20080188460A1, “Tricyclic compounds, a process for their preparation and pharmaceutical compositions containing them” (LES LABORATOIRES SERVIER, priority 2007, published 2008).

Tests used:
H146 cells = conditions: at 3 μM, 6 hours exposure
Method: (§1) This study was carried out on three human tumour cell lines: • 1 small-cell lung carcinoma, H146, • 1 acute myeloid leukaemia, MV4; 11, • 1 leukaemia, RS4; 11.
(§2) The cell lines are cultured in an incubator at 37° C. in the presence of 5% CO2. The H146 and RS4;11 cells are cultured in complete RPMI 1640 medium containing 10% foetal calf serum, 2 mM of glutamine, 50 units/ml of penicillin, 50 μg/ml of streptomycin and 10 mM of Hepes buffer, pH=7.4.
(§3) The cells are distributed onto 6-well plates and exposed to the test compounds for 6 hours. They are then harvested and lysed and the caspase activity is measured in the cell lysates. This enzymatic measurement is carried out by measuring the appearance of a fluorigenic cleavage product (Pharmacia).

MV4;11 cells = conditions: at 0.1 μM, 6 hours exposure
Method: as §1, §2, §3

RS4;11 cells = conditions: at 1 μM, 6 hours exposure
Method: as §1, §2, §3

[1] = test system: H146 small-cell lung carcinoma cells; conditions: 100 mg/kg intra-peritoneally every day for 21 days
Method: The anti-tumour activity of the compounds of the invention is evaluated in a xenotransplant model of H146 small-cell lung carcinoma cells.
5×10^6 H146 cells are transplanted sub-cutaneously into immunosuppressed mice (NOD SCID strain). […] The tumour mass is measured twice a week from the commencement of treatment.

MV4;11 = conditions: read-out: IC50 (concentration of compound that inhibits cell viability by 50%); MV4;11, 48 hours exposure
Method: (§4) The cytotoxicity studies were carried out on the three tumour lines of Example A. The cells are distributed onto microplates and exposed to the test compounds for 48 hours. The cell viability is then quantified by a colorimetric assay, the Microculture Tetrazolium Assay (Cancer Res., 1987, 47, 939-942).

H146 = conditions: read-out: IC50 (concentration of compound that inhibits cell viability by 50%); H146, 48 hours exposure
Method: as §4

RS4;11 = conditions: read-out: IC50 (concentration of compound that inhibits cell viability by 50%); RS4;11, 48 hours exposure
Method: as §4

**Q.** Which results are given for `CN(C)CC[C@H](CSc1ccccc1)Nc1ccc(S(=O)(=O)NC(=O)c2ccc3c(c2)CC[C@@H]2CN(Cc4ccccc4-c4ccc(Cl)cc4)CCN32)cc1[N+](=O)[O-].Cl.Cl` [Example 20]?
**A.** caspase activity (H146 cells): 22000 IU; caspase activity (MV4;11 cells): 20000 IU; caspase activity (RS4;11 cells): 23000 IU; persistence of the effect after the end of treatment [1]: at least 40 days; tumour regression [1]: almost complete tumour regression; IC50 (MV4;11): 0.0295 µM; IC50 (H146): 0.305 µM; IC50 (RS4;11): 0.0165 µM
